Laboratory results taken from patent US20240425508A1, “COMPOUNDS USEFUL IN PREVENTION AND/OR TREATMENT OF SENESCENT CELL-RELATED PATHOLOGIES AND DISEASES” (ISTITUTI CLINICI SCIENTIFICI MAUGERI SPA SB, priority 2022, published 2024).
Read-outs that look alike come from different tables or passages of the source.

Assays:
IMR90 cells = test: DAPI staining assay of surviving cells in replicative senescence model; settings: DAPI signal, 0.5 μM, 48 h, FIG. 2B
Procedure: Following treatment, the cells were seeded in 96mw. The adherent cells were then fixed with 70% ethanol, incubated for 30 min with a 3 μM DAPI solution; the fluorimetric signal was measured using a multiplate reader (Victor Nivo-Perkin Elmer) set to 350/460 nm (Ligasová A, Koberna K. Quantification of fixed adherent cells using a strong enhancer of the fluorescence of DNA dyes. Sci Rep. 2019 Jun. 18; 9(1):8701. doi: 10.1038/s41598-019-45217-9. PMID: 31213648; PMCID: PMC6581942.).
To confirm data obtained by traditional cell counting by a single operator, a quantification method based on […] was also implemented, exploiting the ability of the DAPI to mark cell nuclei. The cells that survived the action of senolytics were fixed and incubated with the fluorescent indicator. The specific signal was measured using the microplate multimode reader, Victor NIVO (PerkinElmer Tech. GmbH, Germany).

[1] = rats; cited from earlier work
[2] = dogs; cited from earlier work
[3] = tested on: primary human fetal lung cells IMR90; format: cell-based
Description: Cell culture and replicative senescence. Fetal pulmonary fibroblasts, IMR90, were provided by the European Collection of Authenticated Cell Culture (ECACC) and grown in a complete medium consisting of Minimum Essential Medium (MEM), 10% Fetal Bovine Serum (FBS), 1% penicillin-streptomycin (antibiotic), 1% L-glutamine. Cells with passages from P15 to P21 were used; cells were considered incrementally senescent from passage P19 to passage P21. […] The cells were fixed in paraformaldehyde 2% and incubated with the substrate, X-gal, in a solution at pH 6, at 37° C., overnight (16 h).
The images were acquired using an optical microscope (Leica) with 5× magnification. The images were analyzed using the ImageJ software, quantifying the colorimetric signal emitted by each cell. The mean signal intensity was then normalized for the total number of cells. Survival curves of the compounds. […] The cells were then counted manually, in triplicate, using disposable burker chambers.
13 compounds including K5, with different structures, were assayed using an in vitro senescence model, that was developed utilizing serial passages of primary human fetal lung cells IMR90. […] Senescence was detected using the “Senescence β-Galactosidase Staining Kit” (#9860S, Cell Signaling Technology, Inc., MA, USA). […]

recombinant HSP90α = target: T1, recombinant HSP90α (Homo sapiens, UniProt P07900); test: HSP90 inhibition activity assay, FITC-geldanamycin competitive binding fluorescence polarization; settings: 1 pM-10 μM, 2 h, FITC-labeled geldanamycin
T1 construct: purchased BPS Bioscience 50293
Procedure: HSP90 inhibition activity assay. […] Briefly, the compounds were diluted at different concentrations between 1 pM to 10 μM and incubated for 2 h with the enzyme and substrate at RT while stirring.

[4] = Crossing of the blood-brain barrier after administration; settings: in vivo

| SMILES | cytotoxic effects in the cellular model IMR90 (IMR90 cells) | maximum tolerated dose (MTD) [1] [mg/m^2] | maximum tolerated dose (MTD) [2] [mg/m^2] | reduction of the senescent population ([3]; IMR90 P19-P21, first 48 hours of exposure, FIG. 2A (1 μM)) | senolytic action on cells at passages between P19 and P21 ([3]; IMR90 P19-P21 vs P15-P17, 1 μM, 48 h) | IC50 (recombinant HSP90α) [nM] | crossing of the blood-brain barrier (BBB) [4] |
| --- | --- | --- | --- | --- | --- | --- | --- |
| CC(C)c1cc(-c2n[nH]c(=O)n2-c2ccc3c(ccn3C)c2)c(O)cc1O [Ganetespib] | cytotoxic effects already at low concentrations and also in early passages |  |  |  |  |  |  |
| CO[C@H]1/C=C\C=C(/C)C(=O)NC2=CC(=O)C(NCCN(C)C)=C(C[C@@H](C)C[C@H](OC)[C@H](O)[C@@H](C)/C=C(\C)[C@@H]1OC(N)=O)C2=O [Compound 17-DMAG, 17-dimethylaminoethylamino-17-demethoxygeldanamycin] | cytotoxic effects already at low concentrations and also in early passages | 12 | 8 |  |  |  |  |
| Cc1ccccc1-n1c(=O)n(Cc2ccccc2)c(=O)c2[nH]cnc21 [Compound Ia, 1-benzyl-3-(2-methylphenyl)-2,3,6,7-tetrahydro-1H-purine-2,6-dione] |  |  |  | about 50% | act selectively and significantly | 731 | enables the crossing of the blood-brain barrier |
